Laboratory results: patent publication US20020183366A1, “Cyclooxygenase-2 inhibitors, compositions and methods of use” (priority 2001, published 2002)

Tests used:
[1] = target: T1, ovine COX-1 (Ovis aries, UniProt P05979); assay: COX Inhibitor Screening Assay, COX-1 activity; type: biochemical; settings: 100 μM test compound
T1 construct: purchased Cayman Chemical, Ann Arbor, Mich
T1 sequence (P05979 25-600): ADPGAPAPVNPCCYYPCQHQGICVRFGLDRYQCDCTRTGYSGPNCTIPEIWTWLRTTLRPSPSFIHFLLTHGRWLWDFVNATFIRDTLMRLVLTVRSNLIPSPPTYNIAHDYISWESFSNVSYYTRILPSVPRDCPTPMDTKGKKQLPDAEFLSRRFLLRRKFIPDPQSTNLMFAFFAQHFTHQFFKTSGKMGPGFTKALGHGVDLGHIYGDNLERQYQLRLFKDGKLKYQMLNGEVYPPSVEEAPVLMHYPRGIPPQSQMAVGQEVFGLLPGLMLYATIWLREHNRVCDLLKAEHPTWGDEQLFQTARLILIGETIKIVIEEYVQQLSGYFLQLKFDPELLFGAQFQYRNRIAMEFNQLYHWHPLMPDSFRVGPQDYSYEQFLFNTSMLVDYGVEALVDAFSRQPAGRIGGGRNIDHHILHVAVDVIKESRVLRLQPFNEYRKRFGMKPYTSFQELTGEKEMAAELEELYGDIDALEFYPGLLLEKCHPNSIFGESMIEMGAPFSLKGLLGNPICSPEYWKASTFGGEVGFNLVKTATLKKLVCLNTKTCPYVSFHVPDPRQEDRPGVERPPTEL
Experimental: (§1) The ovine COX-1 and human CO-2 activities and the measurement of the prostaglandin products synthesized were performed using the COX Inhibitor Screening Assay (Cayman Chemical, Ann Arbor, Mich., which also contained the Prostaglandin Screening EIA Kit, used for prostaglandin quantification). The test compounds were dissolved at 50 times the highest final reaction concentration in DMSO or any other suitable solvent as stock solutions. These stock solutions were then diluted in the same solvent. Eight glass test tubes (13×100 mm) were placed in a 37° C. water bath. To each test tube was added 950 μL of reaction buffer (0.1 M Tris-HCl, pH 8.0, containing 5 mM EDTA, and 2 mM phenol), 10 μL of 100 µM heme solution, and 10 μL (5 units) of either ovine COX-1 or human COX-2 and the resulting mixture was incubated with the enzyme for 2 minutes. Twenty μL of the solvent was added to one tube (100% initial activity or solvent control) and 20 μL of each dilution of the test compound was added to one tube each. Each tube was vortexed immediately after the addition. The enzyme was incubated with the inhibitor for 3.5 minutes at 37° C. The enzymatic reaction was then initiated by the addition of 10 μL of freshly prepared 10 mM arachidonic acid (neutralized with KOH), vortexed and then incubated for 2 minutes at 37° C. […]

[2] = target: T2, human COX-2 (Homo sapiens, UniProt P35354); assay: COX Inhibitor Screening Assay, COX-2 activity; type: biochemical
T2 construct: purchased Cayman Chemical, Ann Arbor, Mich
T2 sequence (P35354 18-604): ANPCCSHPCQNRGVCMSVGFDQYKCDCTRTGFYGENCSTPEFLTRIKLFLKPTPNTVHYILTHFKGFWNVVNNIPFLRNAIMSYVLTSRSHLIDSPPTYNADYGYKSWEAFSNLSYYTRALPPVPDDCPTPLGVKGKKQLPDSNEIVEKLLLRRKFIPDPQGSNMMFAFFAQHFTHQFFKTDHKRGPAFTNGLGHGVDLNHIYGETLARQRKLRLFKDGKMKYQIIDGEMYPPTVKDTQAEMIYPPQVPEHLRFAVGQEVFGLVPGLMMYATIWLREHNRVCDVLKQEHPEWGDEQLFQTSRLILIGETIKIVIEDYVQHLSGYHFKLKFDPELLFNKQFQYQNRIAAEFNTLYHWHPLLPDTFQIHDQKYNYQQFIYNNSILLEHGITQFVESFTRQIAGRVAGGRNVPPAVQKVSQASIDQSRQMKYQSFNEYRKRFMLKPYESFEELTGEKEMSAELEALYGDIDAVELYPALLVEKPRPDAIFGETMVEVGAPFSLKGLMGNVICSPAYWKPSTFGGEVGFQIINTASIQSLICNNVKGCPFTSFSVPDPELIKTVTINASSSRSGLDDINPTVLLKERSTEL
Experimental: as §1

For `O=C1OCC(c2ccc(S(=O)(=O)CF)cc2)=C1c1ccccc1` [Example 1, 4-(4-((Fluoromethyl)sulfonyl)phenyl)-3-phenyl-5-hydrofuran-2-one], the “COX-1 Inhibition (% at 100 μM)” value [1] was 30%, the “COX-2 Inhibition (% at 10 μM)” value ([2]; 10 μM test compound, human COX-2) was 40% and the COX-2 selectivity ([2]; COX-2 versus COX-1, from Table 1) was “has COX-2 selectivity”.
